According to the supplement of paper PMC10627819:

Legend:
Conditions in all cases: main component drawn
S. aureus DSM 20231 = assay: Bliss interaction score (quartile over a dose matrix) (fitness difference); higher = more antagonism (negative = synergy)
Procedure, shortened: (§1)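 The Bliss score takes observed fitness and subtracts the expected fitness, calculated as a product of single-drug fitness values. Those single-drug values were inferred from the combination data. Fitness is OD595 at entry into stationary phase divided by the plate's robust no-drug mean, capped at 1, and the score is summarised by quartiles across technical, biological and donor/recipient replicates.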

S. pneumoniae D39V [1] = assay: as above
Procedure, shortened: as §1

S. aureus Newman = assay: as above
Procedure, shortened: as §1

B. subtilis 168 [2] = assay: as above
Procedure, shortened: as §1

S. pneumoniae D39V [3] = assay: fitness (endpoint OD595 vs no drug) (fraction); higher = more growth
Procedure, shortened: (§2)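 Plates with 384 wells were inoculated at OD595 0.01 using 30 µl of TSB, LB Lennox or CY, or 55 µl for S. pneumoniae. Incubation was at 37 °C, with OD595 measured every 30 min for 14 h. Fitness is the stationary-phase transition optical density over the robust mean of no-drug control wells, after first-reading background subtraction; it is capped at 1.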

B. subtilis 168 [4] = assay: as above
Procedure, shortened: as §2
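For Bliss interaction score (quartile over a dose matrix) in this document: first quartile when negative (synergy) and third quartile when positive (antagonism).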

CNC(C)C1CCC(N)C(OC2C(N)CC(N)C(OC3OCC(C)(O)C(NC)C3O)C2O)O1 (centres undefined) [Gentamicin] + CN(C)C(=O)C(CCN1CCC(O)(c2ccc(Cl)cc2)CC1)(c1ccccc1)c1ccccc1 [Loperamide]
Conditions | Bliss interaction score
B. subtilis 168 [2] | -0.159
S. aureus DSM 20231 | 0.0997
S. aureus Newman | 0.0802
S. pneumoniae D39V [1] | 0.0792

Conditions | fitness
B. subtilis 168 [4], first compound 0.0625 µg/mL, partner 100 µg/mL | 0.0528
B. subtilis 168 [4], first compound 0.125 µg/mL, partner 25 µg/mL | 0.0373
B. subtilis 168 [4], first compound 0.125 µg/mL, partner 50 µg/mL | 0.0589
B. subtilis 168 [4], first compound 0.125 µg/mL, partner 100 µg/mL | 0.0432
B. subtilis 168 [4], first compound 0.25 µg/mL, partner 25 µg/mL | 0.0438
B. subtilis 168 [4], first compound 0.25 µg/mL, partner 50 µg/mL | 0.0483
B. subtilis 168 [4], first compound 0.25 µg/mL, partner 100 µg/mL | 0.0409
S. pneumoniae D39V [3], first compound 2 µg/mL, partner 17.14 µg/mL | 0.968
S. pneumoniae D39V [3], first compound 2 µg/mL, partner 20 µg/mL | ≥ 1
S. pneumoniae D39V [3], first compound 2 µg/mL, partner 34.28 µg/mL | 0.967
S. pneumoniae D39V [3], first compound 2 µg/mL, partner 40 µg/mL | 0.994
S. pneumoniae D39V [3], first compound 2 µg/mL, partner 80 µg/mL | 0.193
S. pneumoniae D39V [3], first compound 4 µg/mL, partner 17.14 µg/mL | ≥ 1
S. pneumoniae D39V [3], first compound 4 µg/mL, partner 20 µg/mL | ≥ 1
S. pneumoniae D39V [3], first compound 4 µg/mL, partner 34.28 µg/mL | 0.98
S. pneumoniae D39V [3], first compound 4 µg/mL, partner 40 µg/mL | ≥ 1
S. pneumoniae D39V [3], first compound 8 µg/mL, partner 17.14 µg/mL | 0.984
S. pneumoniae D39V [3], first compound 8 µg/mL, partner 20 µg/mL | ≥ 1
S. pneumoniae D39V [3], first compound 8 µg/mL, partner 34.28 µg/mL | 0.916
S. pneumoniae D39V [3], first compound 8 µg/mL, partner 40 µg/mL | ≥ 1

S. pneumoniae D39V [3], partner 68.57 µg/mL, one replicate
Conditions | fitness
first compound 2 µg/mL | ≥ 1
first compound 4 µg/mL | 0.924
first compound 8 µg/mL | 0.937

CNC(C)C1CCC(N)C(OC2C(N)CC(N)C(OC3OCC(C)(O)C(NC)C3O)C2O)O1 (centres undefined) [Gentamicin] + CO[C@@H]1[C@@H](OC(N)=O)[C@@H](O)[C@H](Oc2ccc3c(O)c(NC(=O)c4ccc(O)c(CC=C(C)C)c4)c(=O)oc3c2C)OC1(C)C [Novobiocin]
Conditions | Bliss interaction score
B. subtilis 168 [2] | 0.137
S. aureus DSM 20231 | -0.0708
S. aureus Newman | 0.0684
S. pneumoniae D39V [1] | 0.0522

fitness, B. subtilis 168 [4]
Conditions | first compound 0.0625 µg/mL | first compound 0.125 µg/mL | first compound 0.25 µg/mL
partner 0.0125 µg/mL | 0.915 | – | 0.0845
partner 0.025 µg/mL | 0.938 | 0.692 | 0.0329
partner 0.05 µg/mL | 0.998 | 0.705 | –

fitness, B. subtilis 168 [4], one replicate
Conditions | partner 0.1 µg/mL | partner 0.125 µg/mL | partner 0.2 µg/mL | partner 0.25 µg/mL | partner 0.5 µg/mL
first compound 0.0625 µg/mL | ≥ 1 | 0.907 | ≥ 1 | 0.987 | 0.515
first compound 0.125 µg/mL | 0.946 | 0.501 | 0.978 | 0.302 | 0.111
first compound 0.25 µg/mL | 0.152 | 0.056 | 0.476 | 0.0399 | 0.0406

CNC(C)C1CCC(N)C(OC2C(N)CC(N)C(OC3OCC(C)(O)C(NC)C3O)C2O)O1 (centres undefined) [Gentamicin] + COc1cc(Cc2cnc(N)nc2N)cc(OC)c1OC [Trimethoprim]
Conditions | Bliss interaction score
B. subtilis 168 [2] | -0.201
S. aureus DSM 20231 | -0.0371
S. aureus Newman | 0.0637
S. pneumoniae D39V [1] | -0.193

fitness, B. subtilis 168 [4], one replicate
Conditions | partner 0.1 µg/mL | partner 0.2 µg/mL | partner 0.4 µg/mL | partner 1 µg/mL | partner 2 µg/mL
first compound 0.0625 µg/mL | 0.953 | 0.787 | 0.539 | 0.0449 | 0.0512
first compound 0.125 µg/mL | 0.716 | 0.294 | 0.0552 | 0.0304 | 0.0461
first compound 0.25 µg/mL | 0.0356 | 0.0576 | 0.0438 | 0.0435 | 0.0503

fitness, B. subtilis 168 [4]
Conditions | first compound 0.0625 µg/mL | first compound 0.125 µg/mL | first compound 0.25 µg/mL
partner 0.125 µg/mL | 0.661 | 0.548 | 0.0923
partner 0.25 µg/mL | 0.53 | – | 0.0847
partner 0.5 µg/mL | – | – | 0.041

CNC(C)C1CCC(N)C(OC2C(N)CC(N)C(OC3OCC(C)(O)C(NC)C3O)C2O)O1 (centres undefined) [Gentamicin] + C[C@H]1COc2c(N3CCN(C)CC3)c(F)cc3c(=O)c(C(=O)O)cn1c23 [Levofloxacin]
Conditions | Bliss interaction score
B. subtilis 168 [2] | -0.0837
S. aureus DSM 20231 | 0.0527
S. aureus Newman | 0.0894
S. pneumoniae D39V [1] | -0.123

Conditions | fitness
B. subtilis 168 [4], first compound 0.0625 µg/mL, partner 0.002 µg/mL | 0.89
B. subtilis 168 [4], first compound 0.0625 µg/mL, partner 0.0039 µg/mL | 0.89
B. subtilis 168 [4], first compound 0.0625 µg/mL, partner 0.0312 µg/mL | 0.0381
B. subtilis 168 [4], first compound 0.0625 µg/mL, partner 0.0625 µg/mL | 0.0442
B. subtilis 168 [4], first compound 0.0625 µg/mL, partner 0.125 µg/mL | 0.0374
B. subtilis 168 [4], first compound 0.125 µg/mL, partner 0.0312 µg/mL | 0.0387
B. subtilis 168 [4], first compound 0.125 µg/mL, partner 0.0625 µg/mL | 0.046
B. subtilis 168 [4], first compound 0.125 µg/mL, partner 0.125 µg/mL | 0.0388
B. subtilis 168 [4], first compound 0.25 µg/mL, partner 0.002 µg/mL | 0.206
B. subtilis 168 [4], first compound 0.25 µg/mL, partner 0.0039 µg/mL | 0.163
B. subtilis 168 [4], first compound 0.25 µg/mL, partner 0.0312 µg/mL | 0.0407
B. subtilis 168 [4], first compound 0.25 µg/mL, partner 0.0625 µg/mL | 0.0447
B. subtilis 168 [4], first compound 0.25 µg/mL, partner 0.125 µg/mL | 0.0485
S. pneumoniae D39V [3], first compound 2 µg/mL, partner 0.1725 µg/mL | 0.98
S. pneumoniae D39V [3], first compound 2 µg/mL, partner 0.2 µg/mL | 0.901
S. pneumoniae D39V [3], first compound 2 µg/mL, partner 0.345 µg/mL | 0.914
S. pneumoniae D39V [3], first compound 2 µg/mL, partner 0.4 µg/mL | 0.75
S. pneumoniae D39V [3], first compound 2 µg/mL, partner 0.69 µg/mL | 0.636
S. pneumoniae D39V [3], first compound 2 µg/mL, partner 0.8 µg/mL | 0.213
S. pneumoniae D39V [3], first compound 4 µg/mL, partner 0.1725 µg/mL | 0.972
S. pneumoniae D39V [3], first compound 4 µg/mL, partner 0.2 µg/mL | 0.874
S. pneumoniae D39V [3], first compound 4 µg/mL, partner 0.345 µg/mL | 0.902
S. pneumoniae D39V [3], first compound 4 µg/mL, partner 0.4 µg/mL | 0.723
S. pneumoniae D39V [3], first compound 4 µg/mL, partner 0.69 µg/mL | 0.625
S. pneumoniae D39V [3], first compound 4 µg/mL, partner 0.8 µg/mL | 0.21
S. pneumoniae D39V [3], first compound 8 µg/mL, partner 0.1725 µg/mL | 0.98
S. pneumoniae D39V [3], first compound 8 µg/mL, partner 0.2 µg/mL | 0.865
S. pneumoniae D39V [3], first compound 8 µg/mL, partner 0.345 µg/mL | 0.912
S. pneumoniae D39V [3], first compound 8 µg/mL, partner 0.4 µg/mL | 0.671
S. pneumoniae D39V [3], first compound 8 µg/mL, partner 0.69 µg/mL | 0.438
S. pneumoniae D39V [3], first compound 8 µg/mL, partner 0.8 µg/mL | 0.179

fitness, B. subtilis 168 [4], one replicate
Conditions | first compound 0.0625 µg/mL | first compound 0.125 µg/mL | first compound 0.25 µg/mL
partner 0.001 µg/mL | 0.868 | 0.126 | 0.0524
partner 0.0078 µg/mL | 0.98 | 0.977 | 0.259
